Laboratory results as given in PubChem BioAssay AID651986 (The Scripps Research Institute Molecular Screening Center, 2013).
Calls of active or inactive are those of the source. No rule for the calls is given here.

Tests used:
Test in all cases: in situ LYPLA1 and LYPLA2 inhibition, late-stage follow-up, gel-based ABPP, fluorescence, HEK293T, murine T cells (AID 651986)
[1] = tested on: LYPLA2 murine T cells; conditions: HEK293T or murine T cells, NHU5 gel-based ABPP, at 5 µM, active compounds read high
[2] = tested on: LYPLA1 murine T cells; conditions: HEK293T or murine T cells, NHU5 gel-based ABPP, at 5 µM, active compounds read high
[3] = target: Acyl-protein thioesterase 2 (Homo sapiens) (UniProt O95372); conditions: HEK293T or murine T cells, NHU5 gel-based ABPP, LYPLA2 HEK293T cells, at 5 µM, active compounds read high
[4] = target: Acyl-protein thioesterase 1 (Homo sapiens) (UniProt O75608); conditions: HEK293T or murine T cells, NHU5 gel-based ABPP, LYPLA1 HEK293T cells, at 5 µM, active compounds read high
Chain of Acyl-protein thioesterase 1 (Homo sapiens) (O75608 whole entry, looked up): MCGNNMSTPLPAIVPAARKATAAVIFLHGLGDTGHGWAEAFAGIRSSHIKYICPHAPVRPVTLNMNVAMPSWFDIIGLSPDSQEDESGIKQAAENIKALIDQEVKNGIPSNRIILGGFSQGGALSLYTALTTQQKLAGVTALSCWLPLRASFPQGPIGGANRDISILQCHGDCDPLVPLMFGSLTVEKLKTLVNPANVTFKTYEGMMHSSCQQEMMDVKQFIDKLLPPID

Chain of Acyl-protein thioesterase 2 (Homo sapiens) (O95372 whole entry, looked up): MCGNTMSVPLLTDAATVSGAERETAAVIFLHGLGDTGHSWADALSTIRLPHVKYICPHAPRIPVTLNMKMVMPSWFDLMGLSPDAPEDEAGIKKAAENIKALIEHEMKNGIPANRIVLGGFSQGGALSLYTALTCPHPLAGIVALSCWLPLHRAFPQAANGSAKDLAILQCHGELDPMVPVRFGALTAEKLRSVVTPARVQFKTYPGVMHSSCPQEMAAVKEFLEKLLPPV

## COc1ccc(N2CCN(C(=O)c3cc4c(s3)-c3ccccc3S(=O)(=O)C4)CC2)cc1
[1]
  inhibition: 100%
[2]
  inhibition: 0% (inactive)
[3]
  inhibition: 100%
[4]
  inhibition: 0% (inactive)

## O=C(CN1CCN(C(=O)c2ccco2)CC1)Nc1cc(C(F)(F)F)ccc1Cl
[1]
  inhibition: 0% (inactive)
[2]
  inhibition: 100%
[3]
  inhibition: 0% (inactive)
[4]
  inhibition: 100%
